Key:
[1] = test system: beta-hemolytic streptococcus 96 (乙型链球菌96); assay: In vitro antibacterial effect, tube method; parameters: key to antibacterial effect: -: 有明显抑菌作用; +: 没有抑菌作用; settings: 1% solution mixed with MH broth with 5% defibrinated sheep blood
[2] = test system: Candida albicans 10 (白色念珠菌10); assay: In vitro antibacterial effect, tube method; parameters: key: -: 有明显抑菌作用; +: 没有抑菌作用; settings: 1% solution mixed with MH broth with 5% glucose, 37°C, 24 h
[3] = test system: cervical erosion model rats (宫颈糜烂模型大鼠); assay: Therapeutic effect on cervical erosion model rats: degree of cervical inflammation / pathology; format: in vivo, rat; settings: intravaginal, 12 days, positive control 0.02 g/kg, Example 2 gel 0.1048 g/kg
[4] = test system: Candida albicans 12 (白色念珠菌12); assay: In vitro antibacterial effect, tube method; parameters: key: -: 有明显抑菌作用; +: 没有抑菌作用; settings: 1% solution mixed with MH broth with 5% glucose, 37°C, 24 h
Candida albicans (白色念珠菌) = assay: In vitro antibacterial effect, tube method (summary for the selected strains); settings: 1% solution mixed with MH broth
egg white (蛋清) = assay: Astringent / coagulating effect on protein (precipitation of egg white); parameters: key to protein precipitation: -: 未见白色沉淀; +: 隐约可见白色沉淀; +: 有少量白色沉淀; ++: 有较多白色沉淀; +++: 有大量白色沉淀; settings: for protein precipitation: 0.2 ml added to 5 ml of 5% egg white
[5] = test system: Candida albicans 2 (白色念珠菌2); assay: In vitro antibacterial effect, tube method; parameters: key: -: 有明显抑菌作用; +: 没有抑菌作用; settings: 1% solution mixed with MH broth with 5% glucose, 37°C, 24 h
[6] = test system: Escherichia coli 26 (大肠埃希氏菌26); assay: In vitro antibacterial effect, tube method; parameters: key to antibacterial effect: -: 有明显抑菌作用; +: 没有抑菌作用; settings: 1% solution mixed with MH broth
[7] = test system: Staphylococcus aureus 9776 (金葡菌9776); assay: In vitro antibacterial effect, tube method; parameters: key to antibacterial effect: -: 有明显抑菌作用; +: 没有抑菌作用; settings: 1% solution mixed with MH broth
[8] = test system: Enterococcus faecalis 755 (粪肠球菌755); assay: In vitro antibacterial effect, tube method; parameters: key to antibacterial effect: -: 有明显抑菌作用; +: 没有抑菌作用; settings: 1% solution mixed with MH broth with 5% defibrinated sheep blood
[9] = test system: cervical erosion model rats (宫颈糜烂模型大鼠); assay: Therapeutic effect on cervical erosion model rats: body weight, vagina and cervix weight index, white blood cell count; format: in vivo, rat; settings: intravaginal, 12 days, positive control 0.02 g/kg, Example 2 gel 0.1048 g/kg
[10] = test system: Staphylococcus epidermidis 26069 (表葡菌26069); assay: In vitro antibacterial effect, tube method; parameters: key to antibacterial effect: -: 有明显抑菌作用; +: 没有抑菌作用; settings: 1% solution mixed with MH broth
[11] = test system: Candida albicans 6 (白色念珠菌6); assay: In vitro antibacterial effect, tube method; parameters: key: -: 有明显抑菌作用; +: 没有抑菌作用; settings: 1% solution mixed with MH broth with 5% glucose, 37°C, 24 h
[12] = number of rats out of 8 per group

Cc1ccc(S(=O)(=O)O)c(O)c1 [2-羟基-4-甲基苯磺酸]
antibacterial effect (in words) [1]: 没有抑菌作用
antibacterial effect ([1]; 37°C, 24 h): +
antibacterial effect [2]: -
Ridit test u value ([3]; inflammation grade vs model group, * = significant difference): 2.8146
inflammation degree grade: mild [3, 12]: 2
inflammation degree grade: moderate [3, 12]: 1
inflammation degree grade: normal [3, 12]: 4
inflammation degree grade: severe [3, 12]: 1
antibacterial effect [4]: -
inhibitory effect (in words) (Candida albicans (白色念珠菌)): 有明显的抑制作用
threshold concentration for astringent coagulating effect on protein (egg white (蛋清); concentration of the added solution): 0.39%
astringent coagulating effect compared with tannic acid (egg white (蛋清); same concentration): 弱于同浓度的鞣酸
protein precipitation (egg white (蛋清); test substance solution 0.098% (tube 10)): -
protein precipitation (egg white (蛋清); test substance solution 0.195% (tube 9)): -
protein precipitation (egg white (蛋清); test substance solution 0.78% (tube 7)): +
protein precipitation (egg white (蛋清); test substance solution 1.56% (tube 6)): +
protein precipitation (egg white (蛋清); test substance solution 3.125% (tube 5)): ++
protein precipitation (egg white (蛋清); test substance solution 6.25% (tube 4)): +++
protein precipitation (egg white (蛋清); test substance solution 12.5% (tube 3)): +++
protein precipitation (egg white (蛋清); test substance solution 25% (tube 2)): +++
protein precipitation (egg white (蛋清); test substance solution 50% (tube 1)): +++
antibacterial effect [5]: -
inhibitory effect (in words) [6]: 有明显的抑制作用
antibacterial effect ([6]; 37°C, 24 h): -
inhibitory effect (in words) [7]: 有明显的抑制作用
antibacterial effect ([7]; 37°C, 24 h): -
antibacterial effect (in words) [8]: 没有抑菌作用
antibacterial effect ([8]; 37°C, 24 h): +
body weight after test ([9]; 1 h after last dose, *P<0.05 vs model): 249.6 ± 26.7 g
total white blood cell count ([9]; blood, after last dose, *P<0.05, **p<0.01 vs model): 5.74±0.88 10^9g/L
vagina and cervix weight index ([9]; *P<0.05 vs model): 0.268±0.102 g/100g body weight
inhibitory effect (in words) [10]: 有明显的抑制作用
antibacterial effect ([10]; 37°C, 24 h): -
antibacterial effect [11]: -

— patent CN101069680A, “2-羟基-4-甲基苯磺酸制剂的制备及其应用” (BEIJING HUARUI DINGXIN TECHNOLOGY Co Ltd, priority 2007, dated 2007)
